Source: patent US20070021329A1, “Treatment of hypersensitivity conditions” (THE University of QUEENSLAND, priority 2002, published 2007)

Key:
feline asthma = experiment: Treatment of asthma in a tiger cub; assay type: in vivo, Bengal Tiger; details: for response of respiratory clinical signs to bronchodilators: terbutaline 0.3 mg/kg orally, Ventolin puffer 100 μg by inhalation
Experimental: Respiratory problems were first noticed in Kaasha, a female Bengal Tiger cub at the Dreamworld park, Australia, at the age of 10 weeks and around 10 kg body weight.
Approximately three weeks after initial clinical signs, the treatment included Clavulox (7 mg/kg administered subcutaneously), doxycycline (5 mg/kg administeredorally), and enrofloxacin (5 mg/kg administered subcutaneously) and terbutaline (0.3 mg/kg administered orally), nebulisation (saline) and percussion, use of Ventolin 100 μg by puffer inhalation and terbutaline (0.3 mg/kg administered orally) as necessary to control dyspnoea. Prednisolone was given as a single daily dose of 2 mg/kg, and Seretide (Salmeterol 50 μg plus fluticasone 250 μg) was given using a mask and spacer. […] This combination of treatment was maintained over the next month.
Consequently an experimental technique involving direct injection of Prednisolone sodium succinate, 1200 mg in a total volume of 30 ml (40 mg/ml aqueous solution), was instilled into the trachea under general anaesthesia.
Three weeks after the intra-airway steroid procedure, another experimental therapy was applied. […] (1) were administered at a dose rate of 0.3 mg/kg as single daily subcutaneous injections for six days, followed by twice-weekly injections for 8 weeks. At this time the dose of oral corticosteriod, Prednisolone approx 1 mg/kg reducing, had been reduced to 20 mg per day because of concern regarding side effects of prolonged high dose use.

feline C5a receptor = experiment: Binding to feline C5a receptor; parameters: species or system cat
dermal Arthus reaction [1] = experiment: Reverse passive dermal Arthus reaction in the rat: pathology assessment (PMN infiltration score); assay type: in vivo; details: intravenous, oral and topical pretreatment, FIG. 3
Experimental: (§1) The lateral surfaces of the rat were carefully shaved and 5 distinct sites on each lateral surface clearly delineated. A reverse passive Arthus reaction was induced in each dermal site by injecting Evans blue (15 mg kg^−1 i.v.), chicken ovalbumin (20 mg kg^−1 i.v.) into the femoral vein 10 min prior to the injection of antibody. Rabbit anti-chicken ovalbumin (saline only, 100, 200, 300 or 400 μg antibody in a final injection volume of 30 μL) was injected in duplicate at two separate dermal sites on each lateral surface of the rat, giving a total of 10 injection sites per rat. Rats were placed on a heating pad, and anaesthetic was maintained over a 4 h-treatment period with periodic collection of blood samples. […] Additionally, a second set of skin samples were placed in 1 mL of formamide overnight, and the absorbance of Evans blue extraction measured at 650 nm, as an indicator of serum leakage into the dermis. […] Data are shown as absorbance at 650nm as a percentage of the plasma absorbance, as mean values ±SEM (n=3-6). *indicates a P value ≦0.05 when compared to Arthus control values. […]
Rat skin samples were fixed in 10% buffered formalin for at least 10 days, and stained with haematoxylin and eosin using standard histological techniques. Dermal samples were analysed in a blind fashion for evidence of pathology, and the degree of rat PMN infiltration was scored on a scale of 0-4. […]

allergic dermatitis = experiment: Treatment of allergic/atopic dermatitis in dogs; assay type: in vivo, dog
Source text: Because of the intermittent nature of the lameness the owner, a veterinarian, found it difficult to assess any improvement.
A very old dog (estimated age 13-16 years) admitted to a pound was diagnosed as having severe atopic dermatitis affecting 100% of the skin and the inside of the ear pinnae (otitis external, and keratoconjunctivitis sicca (“dry eye”). The dog had broken skin over the dorsum of the tail, and both eyes were encrusted with yellow exudate.
The sores on the tail resolved within 3 days.

[2] = dog, in vivo, sc
Source text: (§2) Blood samples were collected after 4 weeks of treatment. […] Biochemistry and haematology was repeated on the high-dose dog at this time.
(§3) The second dog was bled for haematology and biochemistry after a total of seven weeks treatment.

[3] = tested on: demodectic dermatitis (Demodex canis infestation); experiment: Treatment of flea allergy dermatitis and demodectic dermatitis in dogs; assay type: in vivo, dog
Source text: Demodex, also known as demodectic mange or red mange, is an infestation of the skin caused by the mite Demodex canis which causes dermatitis, skin thickening and hair loss, and is very common in dogs. This condition is thought to be due partially to impaired immune responses in the host. It is often associated with flea infestation, which itself can cause an allergic dermatitis. The skin irritation in infected animals is sometimes very extensive, and results in loss of hairs and severe skin rashes. […] (b) A mastiff pup (approximately 6 months old) was diagnosed as having demodex infestation (folliculitis) of the head, involving both eyelids. […] The eyes were red and discharging, and the dog squinted because of the ocular pain. […] This was applied to the eyelid lesion so that the lesion was wet, and was also instilled into the eyes. […] This was considered to be a very significant clinical response.

circulating TNFα = experiment: Reverse passive dermal Arthus reaction in the rat: serum TNFα ELISA; assay type: in vivo; details: intravenous, oral and topical pretreatment, FIG. 2
Experimental: as §1, with “samples. Blood was allowed to spontaneously clot on ice, and serum samples were collected and stored at −20° C.” for “samples.”
Serum TNFα concentrations were measured using an enzyme-linked immunosorbent assay (ELISA) kit (Strachan et al., 2000). […]

dermal Arthus reaction [4] = experiment: Reverse passive dermal Arthus reaction in the rat: vascular leakage (Evans blue); assay type: in vivo; details: intravenous, oral and topical pretreatment, FIG. 1
Experimental: (1) by oral gavage (10 mg kg^−1 dissolved in 10% ethanol/90% saline solution to a final volume of 200 μl) or an appropriate oral vehicle control 30 min prior to deposition of antibody. Female Wistar rats (150-250 g) were anaesthetised with ketamine (80 mg kg^−1 i.p.) and xylazine (12 mg kg^−1 i.p.).
as §1

equine receptor = experiment: Binding to equine C5a receptor; parameters: species or system horse
[5] = Safety observations in dogs treated with PMX53 (haematology, biochemistry, autopsy, injection site); details: both dogs; duration of the experiment
Source text: as §2, §3

[6] = old dog, topical 5 mg/ml once a day
[7] = mastiff pup, topical 10 mg/ml daily, after 5 days

With `CC(C)(C)NCC(O)c1ccc(O)c(CO)c1` (centres unmarked) [Ventolin, albuterol, reference compound] the “response of respiratory clinical signs to bronchodilators” value (feline asthma) was “responded rapidly”.

For `CC(C)(C)NCC(O)c1cc(O)cc(O)c1` (centres unmarked) [terbutaline, reference compound], the “response of respiratory clinical signs to bronchodilators” value (feline asthma) was “responded rapidly”.

In the case of AcF-[OPdChaWR] [PMX53], the “binding to the feline C5a receptor” value (feline C5a receptor) is reported as “bind well”, the “pathology index associated with a dermal Arthus reaction” value (dermal Arthus reaction [1]) is reported as “reduction of the pathology index” and the allergic dermatitis (allergic dermatitis; kelpie dog, 1 mg/kg/day PO) is reported as “marked improvement in the dog's allergic dermatitis, which had apparently resolved completely”. For the same compound, the “time to resolution of sores on the tail” value (allergic dermatitis; old dog, severe atopic dermatitis, topical 5 mg/ml in 50% propylene glycol:50% water once a day) was at most 3 days, the gait (allergic dermatitis; old dog, after treatment, initially very stilted gait) was “able to walk and trot freely” and the “eyes (keratoconjunctivitis sicca)” value (allergic dermatitis; old dog, eye-drop formulation 5 mg/ml in 30% polyethylene glycol:70% normal saline) was “improved to the point of being essentially normal in appearance”. For the same compound, the itching (allergic dermatitis; [6]) was “no signs of itching”, the “thickening of the skin over the stifle and ischial tuberosity” value (allergic dermatitis; [6]) was “resolved noticeably” and the “severe allergic dermatitis (presumed flea allergy)” value (allergic dermatitis; second dog, 0.3 mg/kg s.c. once daily, FIG. 4) was “completely resolved”. For the same compound, the “irritation at the site of injection” value [2] was “no evidence of irritation”, the discomfort on injection ([2]; 0.3 mg/kg) was “No discomfort was noted” and the “haematology and biochemistry abnormalities” value ([2]; 0.3 mg/kg) was “No abnormalities were detected”. For the same compound, the “eyelid inflammation / trichiasis” value ([3]; mastiff pup, eye drops 10 mg/ml once daily, over 5 days) was “inflammation resolved to the point that the trichiasis was relieved”, the “inflammation in the skin (head lesions)” value [3, 7] was “inflammation in the skin was reduced” and the “mites in scrapings taken from the lesion” value [3, 7] was “mites were still present”. The “inflammatory response in the skin” value ([3]; two dogs with demodectic dermatitis, 0.3 mg/kg s.c. for 13 days) was “significant reduction in the inflammatory response in the skin”, the “breathing and recovery time after episodes of dyspnoea” value (feline asthma; 0.3 mg/kg single daily subcutaneous injections for six days) was “moderate to marked improvement” and the “general breathing pattern and recovery time” value (feline asthma; 0.3 mg/kg subcutaneous twice-weekly injections) was “not as good during twice weekly treatments as it had been following daily injections, although recovery time was comparable”. The “playfulness, general activity level, appetite and general demeanour” value (feline asthma; together with reduction in oral cortisone dosage) was “marked improvement”, the “rise in circulating TNFα associated with a dermal Arthus reaction” value (circulating TNFα) was “inhibition of the rise in circulating TNFα” and the “vascular leakage associated with a dermal Arthus reaction” value (dermal Arthus reaction [4]) was “inhibition of the vascular leakage”. For the same compound, the “binding to the equine receptor” value (equine receptor) was “binds less effectively” and the “signs of drug toxicity” value [5] was “no signs of drug toxicity”.

In the case of “Prednisolone sodium succinate [reference compound]”, the respiratory effort (feline asthma; 1200 mg in 30 ml instilled into the trachea, within 24 hours) is reported as “rapid and marked improvement in respiratory effort”.
